Test results reported in patent publication US20180353501A1 (Arvinas, Inc., priority 2017, published 2018).

Biological target: T1, endogenous p38δ (Homo sapiens, UniProt O15264+P40337)
T1 construct: GST-VBC was immobilized on glutathione sepharose beads and incubated with MDA-MB-231 whole cell lysate (WCL); endogenous in cells; host or cells: MDA-MB-231 whole cell lysate (p38δ); GST-VBC bait made in E. coli BL21(DE3)
Experiment: Ternary complex pull-down from MDA-MB-231 whole cell lysate with GST-VBC bait
Format: binding
From the text: FIGS. 15A, 15B, and 15C. Differential p38δ:PROTAC:VHL ternary complex affinities result in distinct cellular ubiquitination outcomes. (A) Both exemplary compound 50 and 46 pull-down p38δ in vitro, however compound 46 maintains ternary complex at lower concentrations. As in FIG. 14A, GST-tagged VBC was used as a bait to trap recombinant p38δ in the presence of vehicle (DMSO) or the indicated concentrations of compound 50 or 46. The rightmost lane represents a 1:25 dilution of initial input protein used in each pull-down. […] GST-VBC was immobilized on glutathione sepharose beads and incubated with MDA-MB-231 whole cell lysate (WCL) in the presence of vehicle (DMSO) or the indicated concentrations of compound 50 or 46. Beads were washed and “trapped” proteins (i.e. those that engage in a ternary complex) were eluted with SDS sample buffer and separated by SDS-PAGE. Samples were assessed by western blot and CUL2 and α-tubulin serve as positive and negative GST-VBC immunoprecipitation controls, respectively. […] FLAGimmunoprecipitated lysates were separated by SDS-PAGE and assessed via western blots detecting HA (Ub). […]
To further assess these findings, a more biologically-relevant context for measuring ternary complex formation was used. […] Thus, whether PROTAC-induced PPIs could be monitored in a complex cellular environment using CETSA was examined. […]

T1 sequence (O15264 whole entry): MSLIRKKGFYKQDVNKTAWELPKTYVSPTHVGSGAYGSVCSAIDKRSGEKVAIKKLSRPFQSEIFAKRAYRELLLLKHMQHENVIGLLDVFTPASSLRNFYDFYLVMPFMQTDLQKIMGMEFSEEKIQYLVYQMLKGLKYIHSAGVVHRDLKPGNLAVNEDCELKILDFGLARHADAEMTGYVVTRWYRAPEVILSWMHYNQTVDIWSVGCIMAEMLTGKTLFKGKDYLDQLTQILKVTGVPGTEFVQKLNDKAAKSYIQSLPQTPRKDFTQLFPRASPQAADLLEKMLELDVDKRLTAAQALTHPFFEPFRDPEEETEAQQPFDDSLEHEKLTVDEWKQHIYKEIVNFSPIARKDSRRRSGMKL
T1 sequence (P40337 whole entry): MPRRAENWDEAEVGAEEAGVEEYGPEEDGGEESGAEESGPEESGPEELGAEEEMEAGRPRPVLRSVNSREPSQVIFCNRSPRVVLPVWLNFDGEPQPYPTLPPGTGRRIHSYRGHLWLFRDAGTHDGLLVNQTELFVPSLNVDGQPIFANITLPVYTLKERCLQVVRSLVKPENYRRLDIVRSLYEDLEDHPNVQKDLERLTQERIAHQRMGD
T1 sequence (Q15370 whole entry partner): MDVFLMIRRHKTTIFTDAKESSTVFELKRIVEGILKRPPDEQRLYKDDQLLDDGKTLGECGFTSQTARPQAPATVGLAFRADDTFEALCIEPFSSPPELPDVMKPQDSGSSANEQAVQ
T1 sequence (Q15369 whole entry partner): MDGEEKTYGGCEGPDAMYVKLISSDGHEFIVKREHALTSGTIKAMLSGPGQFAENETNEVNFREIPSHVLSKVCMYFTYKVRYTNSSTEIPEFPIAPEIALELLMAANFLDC

SMILES	enrichment of endogenous p38δ from whole cell lysate on GST-VBC bait
COc1cc2c(Oc3ccc(NC(=O)C4(C(=O)Nc5ccc(F)cc5)CC4)cc3F)ccnc2cc1OCCOCCOCCOc1cc(-c2scnc2C)ccc1CNC(=O)[C@@H]1C[C@@H](O)CN1C(=O)[C@H](C(C)C)N1Cc2ccccc2C1=O [compound 46]	strongly enrich for endogenous p38δ in a dose-dependent manner
COc1cc2c(Oc3ccc(NC(=O)C4(C(=O)Nc5ccc(F)cc5)CC4)cc3F)ccnc2cc1OCCCCOCCCCOCC(=O)N[C@H](C(=O)N1C[C@H](O)C[C@H]1C(=O)NCc1ccc(-c2scnc2C)cc1)C(C)(C)C [compound 50, N-(3-fluoro-4-((7-(4-(4-(2-(((S)-1-((2S,4R)-4-hydroxy-2-((4-(4-methylthiazol-5-yl)benzyl)carbamoyl)pyrrolidin-1-yl)-3,3-dimethyl-1-oxobutan-2-yl)amino)-2-oxoethoxy)butoxy)buto-xy)-6-methoxyquinolin-4-yl)oxy)phenyl)-N-(4-fluorophenyl)cyclopropane-1,1-dicarboxa-mide]	greatly reduced
